Literature values as cited in patent US20190135859A1, “METHOD OF MANUFACTURING A PHARMACEUTICAL COMPOSITION” (FERRING B.V., priority 2017, published 2019).
Starred links: 1 amine or outer side, 2 acyl side, 3 side chain; linkers in the order of their positions; H or OH if unused. Positions of bridges follow the written chain, without caps; N, C: chain ends. Residues, ends and D or L forms follow the SMILES beside them. X1 = O=C(CCC[*:2])[*:1]

Legend:
[1] = tested on: human oxytocin (hOT) receptor versus human V2 (hV2) receptor; settings: ratio of EC50 values; see Table 2 in WO2009/122285
[2] = tested on: Prader-Willi Syndrome patients; settings: after 15 days, versus placebo treated patients, as described in WO2016/044131

Q: For CC[C@H](C)[C@@H]1NC(=O)[C@H](Cc2ccc(O)cc2)NC(=O)[C@@H](N)CSSC[C@@H](C(=O)N2CCC[C@H]2C(=O)N[C@@H](CC(C)C)C(=O)NCC(N)=O)NC(=O)[C@H](CC(N)=O)NC(=O)[C@H](CCC(N)=O)NC1=O [Oxytocin, oxytocin], which “hV2/hOT selectivity ratio (EC50 hV2/EC50 hOT)” value [1] is on record?
A: Its value is 3.

Q: For CC[C@H](C)[C@@H]1NC(=O)[C@H](Cc2ccc(OC)cc2)NC(=O)CCCSC[C@@H](C(=O)N2CCC[C@H]2C(=O)N[C@@H](CC(C)C)C(=O)NCC(N)=O)NC(=O)[C@H](CC(N)=O)NC(=O)[C@H](CCC(N)=O)NC1=O [carbetocin, (1-desamino-1-monocarba-2(O-methyl)-tyrosine)oxytocin] (Y(Me)IQNCPLG-NH2; linker N-5 via X1), which “hV2/hOT selectivity ratio (EC50 hV2/EC50 hOT)” value [1] is on record?
A: The value was 244.

Q: And the “improvement over placebo in measurements of hyperphagia, obsessive compulsive disorder, food seeking behaviour and clinical global impression” value [2]?
A: The value was “statistically significant improvement”.
